Results: patent US8431747B2, “Process for the preparation of monomers for polybenzimidazole materials” (E I du Pont de Nemours and Company, priority 2008, dated 2013)
Counter-ions that a name gives are not always drawn.

Assay: solubility of TAT salt in water
Assay type: physicochemical
Details: 25° C.
Protocol: The reaction mixture containing the precipitated TAT salt is then cooled to about 5° C. to about 15° C. and stirred, then filtered. The TAT salt is then washed 44. It may be washed with deaerated aqueous acid, such as HCl (33%), and then optionally with deaerated ethanol or methanol to produce a wet cake material. The used acid can then be distilled and recycled (31, 30, 33). […] Using an agitated filter unit during the wash procedures can allow for a reduction of the wash volumes. Under such circumstances, using small amounts of cold (e.g., about 5° C.) water instead of the aqueous acid would be effective; cold water would be used because of lower solubility of the TAT salt in cold water versus, e.g., room temperature. For example, the solubility of TAT.4HCl in water at 25° C. is about 16 wt %.

- solubility in water: about 16 wt %
Compound: Cc1c(N)c(N)cc(N)c1N [TAT.4HCl, 2,3,5,6-tetraaminotoluene salt]
